≈ marks a conversion by molar mass, not a printed value.
Columns and labels:
Daphnia magna = settings: chronic/long-term; duration: 21 days
Anas platyrhynchos = settings: oral, mortality
Apis mellifera = settings: acute; duration: 48 hours; oral; unspecified; mortality
Ictalurus punctatus = settings: acute; duration: 96 hours; mortality
Canidae = settings: chronic; duration: 52 weeks; oral; Dog Other
Oncorhynchus mykiss = settings: chronic/long-term; duration: 21 days
Oryctolagus sp. = settings: reproduction developmental; reproduction

For `N#Cc1sc2c(=O)c3ccccc3c(=O)c=2sc1C#N` [Dithianon], the LD50 (Rattus norvegicus; acute, oral, mortality) was < 500 mg/kg-day, the NOAEL (Rattus norvegicus; chronic, histopathology: neoplastic) was 1 mg/kg-day and the NOAEL (Rattus norvegicus; short-term, duration: 7 days, oral, histopathology: nonneoplastic) was 12 mg/kg-day. For the same compound, the NOAEL (Rattus norvegicus; short-term, duration: 28 days, oral, histopathology: nonneoplastic) was 12 mg/kg-day, the NOEC (Daphnia magna) was 0.0595 mg/L and the LD50 (Anas platyrhynchos; acute, unspecified) was > 2000 mg/kg-day. The LC50 (Anas platyrhynchos; short-term, feed) was > 790 mg/kg-day, the LC50 (Tagia sp.; acute, duration: 14 days, mortality) was 578 mg/kg and the NOEC (Tagia sp.; chronic/long-term, duration: 56 days, reproduction) was 48 mg/kg. The LD50 (Apis mellifera) was > 25.4 µg/piece, the LC50 (Ictalurus punctatus) was 0.0143 µg/mL (≈ 0.0483 µM) and the NOAEL (Canidae) was 1.6 mg/kg-day. For the same compound, the NOEC (Oncorhynchus mykiss) was 0.00046 mg/L, the LC50 (Colinus virginianus; acute, oral, diet, mortality) was > 1200 mg/kg-day and the LD50 (Colinus virginianus; acute, oral, mortality) was 309 mg/kg-day. The NOEC (Colinus virginianus; reproduction developmental, reproduction) was 22.8 mg/kg-day and the NOAEL (Oryctolagus sp.) was 25 mg/kg-day.

Source: EPA's ToxValDB 9.5 (doi:10.2903/j.efsa.2010.1904)
